From patent US5691382A, “Inhibition of TNF production with matrix metaloproteinase inhibitors” (British Biotech Pharmaceuticals Limited, priority 1992, dated 1997)

These compounds were tested on TNF α (assay: variation: infusion of compound before LPS, inhibition of TNF elevation in vivo). Settings: rat, infusion 1 mg/kg/hr, 15 minutes prior to LPS 500 μg.kg^-1, for 2 hours.
Design: species or system Male CD rats
Experimental: (§1) Male CD rats (Charles River, UK) weighing between 300 g-400 g were anaesthetised with an intra-peritoneal injection of a mixture of 62.5 mg.kg^-1 thiopental and 22.5 mg.kg^-1 sodium pentobarbitone (Thiopental, Sigma Chemical Co., UK; Sodium pentobarbitone (Sagatal), May and Baker., UK). The trachea was exposed and cannulated to allow spontaneous respiration through a patent airway. The left jugular vein was exposed and cannulated for the administration of LPS. The right femoral artery was exposed and cannulated for withdrawal of blood samples. Blood samples (1 ml) were removed 5 minutes prior to bolus administration of either LPS (E. coil serotype 0111:b4, Difco Laboratories, USA) or saline (NaCL 0.9% w/v) and at intervals of 1 hour and 2 hours after LPS. Removed blood was replaced with equal amounts of saline.
(§2) Rat serum TNF levels were measured using a mouse TNF α reference standard. The commercial ELISA kits were from Genzyme.

Row | SMILES | inhibition of maximal TNF elevation relative to control
1 | CNC(=O)[C@H](Cc1ccc(OCC(=O)O)cc1)NC(=O)[C@H](CC(C)C)[C@H](CSc1cccs1)C(=O)NO [Compound 29, 2S-(thien-2-ylsulphanylmethyl)-3R-(2-(4-carboxymethoxyphenyl)-1S-methylcarbamoyl-ethylcarbamoyl)-5-methyl-hexanohydroxamic acid] | 60%

These compounds were tested on TNFα release from human monocytic cell line, U937 (assay: inhibition of TNFα release from PMA-stimulated human monocytic cell line U937 (18 h, ELISA)). Settings: U-937, PMA 50 nM, U937 cells, 18 hours at 37° C., reported by Group A/B/C, read-out: IC50 (concentration which inhibits the release of TNFα by 50% relative to the control culture).
Type: cell-based
Experimental: Metalloproteinase inhibitors can prevent the release of TNF from PMA-stimulated human monocytic cell line U937.
The ability of representative compounds, which are inhibitors of metalloproteinases, to inhibit the release of TNF was investigated. The assay is based on the ability of phorbol myristate acetate (PMA) to stimulate the release of TNFα from a human monocytic cell line, U937.
U937 cells cultured in RPMI 1640 medium +5% foetal calf serum were centrifuged at 1000×g for 5 minutes and then resuspended in medium at 2×10^6 /ml. 1 ml of cell suspension was aliquoted into individual wells of 24-well plates. Test compounds were dissolved in dimethyl sulphoxide (DMSO) at a stock concentration of 100 mM, then diluted to 50×the final required concentration with RPMI 1640 medium. 20 μl of the diluted compounds were added to U937 cells in duplicate wells. TNFα release was stimulated by addition of PMA to the cells at a final concentration of 50 nM. Appropriate control cultures were set up in duplicate. The plates were incubated for 18 hours at 37° C., 5% CO2, then centrifuged at 1000 ×g for 5 minutes. A specific ELISA for TNFα obtained from British Bio-technology Products Limited, Abingdon, England was used to measure TNFα levels in the culture supernatants according to the protocol supplied.
The average concentration of test compound which inhibits the release of TNFα by 50% relative to the control culture was assessed as greater than 90 μM, in the range 10 μM-90 μM, or less than 10 μM.

Row | SMILES | IC50
2 | CNC(=O)[C@H](Cc1ccc(OC)cc1)NC(=O)[C@H](CC(C)C)[C@H](C)C(=O)NO [Compound 1, 3R-(2-(4-methoxyphenyl)-1S-methylcarbamoyl-ethylcarbamoyl)-2S,5-dimethyl-hexanohydroxamic acid] | < 10 µM
3 | CNC(=O)[C@H](Cc1ccccc1)NC(=O)[C@H](CC(C)C)[C@H](CSc1ccccc1)C(=O)NO [Compound 2, 2S-(phenylsulfanylmethyl)-3R-(2-phenyl-1S-methylcarbamoyl-ethylcarbamoyl)-5-methyl-hexanohydroxamic acid] | < 10 µM
4 | CNC(=O)[C@H](Cc1ccccc1)NC(=O)[C@H](CC(C)C)[C@H](CSc1cccs1)C(=O)NO [Compound 3, 2S-(thien-2-ylsulfanylmethyl)-3R-(2-phenyl-1S-methylcarbamoyl-ethylcarbamoyl)-5-methyl-hexanohydroxamic acid] | < 10 µM
5 | CNC(=O)[C@H](Cc1ccc(OC)cc1)NC(=O)[C@@H](CC(C)C)[C@H](C)C(=O)NO [Compound 69, 3S-(2(4-methoxyphenyl)-1S-methylcarbamoyl-ethylcarbamoyl)-2S,5-dimethyl-hexanohydroxamic acid] | 10 to 90 µM
6 | CNC(=O)[C@H](Cc1ccc(OC)cc1)NC(=O)[C@@H](CC(=O)NO)CC(C)C [Compound 70, 3R-(2(4-methoxyphenyl)-1S-methylcarbamoyl-ethylcarbamoyl)-5-methyl-hexanohydroxamic acid] | 10 to 90 µM
7 | COc1ccc(C[C@H](NC(=O)[C@@H](CC(=O)NO)CC(C)C)C(=O)N(C)C)cc1 [Compound 100, 3R-(2-(4-methoxyphenyl)-1S-dimethylcarbamoyl-ethylcarbamoyl)-5-methyl-hexanohydroxamic acid] | > 90 µM
8 | CC(C)C[C@H](CC(=O)NO)C(=O)NC1Cc2ccccc2NC1=O (stereo partly drawn) [Compound 101, 3R-(2-oxo-1,2,3,4-tetrahydro-quinoli-3-ylcarbamoyl)-5-methyl-hexanohydroxamic acid] | > 90 µM

These compounds were tested on TNF α (assay: inhibition of endotoxin (LPS) induced TNF production in vivo in anaesthetised rats). Settings: rat, 10 mg.kg^-1 intraperitoneally, 1 hour prior to LPS.
Design: species or system Male CD rats
Experimental: Test compounds were assessed for their ability to inhibit release of endotoxin induced TNF production in vivo.
as §1
The peak of TNF release was at the 1 hour timepoint. TNF levels were expressed in units/ml where 1 unit is the equivalent of 1 pg of mouse TNF α.
as §2
Test compounds were administered intraperitoneally to anaesthetised rats at a dose of 10 mg.kg^-1, 1 hour prior to LPS administration.
The results are expressed as the % inhibition of maximal TNF elevation relative to control: […]

Row | SMILES | % Inhibition of Maximal TNF Elevation relative to control
9 | CNC(=O)[C@H](Cc1ccc(OC)cc1)NC(=O)[C@H](CC(C)C)[C@H](C)C(=O)NO [Compound 1, 3R-(2-(4-methoxyphenyl)-1S-methylcarbamoyl-ethylcarbamoyl)-2S,5-dimethyl-hexanohydroxamic acid] | 0%
10 | CNC(=O)[C@H](Cc1ccc(NC(C)=O)cc1)NC(=O)[C@@H](CC(=O)NO)CC(C)C [Compound 23, 3R-(2-(4-acetamidophenyl)-1S-methylcarbamoyl-ethylcarbamoyl)-5-methyl-hexanohydroxamic acid] | 35%
11 | CNC(=O)[C@H](Cc1ccc(OC)cc1)NC(=O)[C@@H](CC(=O)NO)CC(C)C [Compound 70, 3R-(2(4-methoxyphenyl)-1S-methylcarbamoyl-ethylcarbamoyl)-5-methyl-hexanohydroxamic acid] | 37%
12 | CC(C)C[C@H](CC(=O)NO)C(=O)N[C@@H](Cc1ccccc1)C(=O)NCCCN1CCCC1=O [Compound 74, 3R-(2-phenyl-1S-[2-oxo-pyrolid-1-yl]propylcarbamoyl-ethylcarbamoyl)-5-methyl-hexanohydroxamic acid] | 28%
13 | CNC(=O)[C@H](Cc1ccccc1)NC(=O)[C@H](CCc1ccccc1)CC(=O)NO [Compound 87, 3R-(2-phenyl-1S-methylcarbamoyl-ethylcarbamoyl)-5-phenyl-pentanohydroxamicacid] | 4%
14 | CNC(=O)[C@@H](NC(=O)[C@@H](CC(=O)NO)CC(C)C)C(C)(C)C [Compound 88, 3R-(2,2-dimethyl-1S-methylcarbamoyl-propylcarbamoyl)-5-methyl-hexanohydroxamic acid] | 66%
15 | CCOC(=O)CNC(=O)[C@H](CC(C)C)NC(=O)[C@H](CC(C)C)[C@H](CCCCN1C(=O)c2ccccc2C1=O)C(=O)NO [Compound 93, 2S-(4-phthalimido-butyl)-3R-(3-methyl-1S-ethoxycarbonylmethylcarbamoyl-butylcarbamoyl)-5-methyl-hexanohydroxamic acid] | 43%
16 | CC(C)C[C@H](CC(=O)NO)C(=O)N[C@@H](Cc1ccccc1)C(=O)NCc1cccnc1 [Compound 98, 3R-(2-phenyl-1S-[pyrid-3-ylmethylcarbamoyl]-ethylcarbamoyl)-5-methyl-hexanohydroxamic acid] | 28%
17 | CNC(=O)[C@H](Cc1ccccc1)NC(=O)[C@H](CC(C)C)[C@H](CS(=O)(=O)c1cccs1)C(=O)NO [Compound 99, 2S-(thien-2-ylsulfonylmethyl)-3R-(2-phenyl-1S-methylcarbamoyl-ethylcarbamoyl)-5-methyl-hexanohydroxamic acid] | 55%
